From ChEMBL document CHEMBL4825707, “Quantum mechanical study on the activation mechanism of human carbonic anhydrase VII cluster model with bis-histamine schiff bases and bis-spinaceamine derivatives” (Bioorg Med Chem, 2021) come the findings set out here.

For this assay, the target named is Carbonic anhydrase 7 (Homo sapiens) (UniProt P43166). The assay can be described thus: Activation of human carbonic anhydrase VII by stopped flow CO2 hydrase assay. To be noted: Brain, filed as activator.
Sequence of Carbonic anhydrase 7 (Homo sapiens) (P43166 whole entry): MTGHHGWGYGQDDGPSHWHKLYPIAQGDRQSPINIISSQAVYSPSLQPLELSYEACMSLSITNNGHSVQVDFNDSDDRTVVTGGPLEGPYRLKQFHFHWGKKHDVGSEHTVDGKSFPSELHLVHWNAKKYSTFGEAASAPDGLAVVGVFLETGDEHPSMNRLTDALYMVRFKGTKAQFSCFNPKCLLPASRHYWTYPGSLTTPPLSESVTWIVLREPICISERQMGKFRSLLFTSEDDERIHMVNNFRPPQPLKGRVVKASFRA

In turn, `C(=N/CCc1c[nH]cn1)/c1cccc(/C=N/CCc2c[nH]cn2)c1` displayed a Ka of 18.7 µM. With `NCCc1c[nH]cn1` the figure was 37.6 µM; with `C(=N/CCc1c[nH]cn1)/c1ccc(/C=N/CCc2c[nH]cn2)o1`, 0.085 µM. In the case of `c1nc2c([nH]1)C(c1ccc(C3NCCc4nc[nH]c43)cc1)NCC2` (stereo not drawn), the Ka came to 0.032 µM. In turn, `C(=N\CCc1c[nH]cn1)/c1ccc(/C=N/CCc2c[nH]cn2)cc1` returned a Ka of 9.02 µM.

In turn, `C(=N/CCc1c[nH]cn1)/c1ccccc1/C=N/CCc1c[nH]cn1` gave a Ka of 21.3 µM.

Take `c1nc2c([nH]1)C(c1ccc(C3NCCc4nc[nH]c43)o1)NCC2` (stereo not drawn): the Ka turned out to be 0.035 µM. With `c1cc(C2NCCc3nc[nH]c32)cc(C2NCCc3nc[nH]c32)c1` (stereo not drawn) the figure was 0.039 µM.
